{"source": "patent US9309314B2", "about": "“Polypeptides, nucleic acids and uses thereof” (AGENCY FOR SCIENCE, TECHNOLOGY AND RESEARCH (A*STAR), priority 2013, dated 2016)", "key": {"[1]": {"tested_on": "hESCs", "test": "hESC growth assays (cell counts, colony size, xCELLigence real time cell index)", "assay_type": "cell-based, human", "procedure": "Feeder-free hESCs were cultured in clumps in mTSER1 (Stem Cell Technologies) on Matrigel (BD 354277).\nhESCs were dissociated into single cells using Accutase (Stem Cell Technologies) and plated in the presence of 10 μM Y-27632 (ROCK inhibitor) for 12 hours (Watanabe et al., 2007).\n(§1) For xCELLigence real time growth assays, 4000 cells were plated per well of an E-plate (ACEA Biosciences) with media changes every 48 hours.\n(§2) Recombinant ELA was added at 2.5 uM (or 10 μg/ml). Cell cycle studies were performed with Click-iT EDU staining kit (Invitrogen) and by performing a double thymidine block (2.5 mM thymidine; 16 hour block, 8 hour release, 16 hour block) followed by DAPI staining for DNA content at the indicated times following release."}, "[2]": {"tested_on": "hESCs", "test": "Uptake of FITC-labeled recombinant ELA by hESCs (immunofluorescence)", "assay_type": "cell-based, human", "conditions": "peptide labeled with FITC"}, "[3]": {"tested_on": "other tested cell types", "test": "Cellular uptake of recombinant ELA in other tested cell types", "assay_type": "cell-based", "conditions": "other tested cell types than hESCs"}, "[4]": {"tested_on": "shELA hESCs", "test": "Rescue of growth of shELA hESCs by exogenous peptide", "assay_type": "cell-based, human", "conditions": "addition of recombinant peptide", "procedure": "as §1, §2\nTo generate stable inducible knockdown of ELA in hESCs, the sequence […] (SEQ ID NO: 132) targeting the 3′UTR of ELA was cloned into pSUPERIOR (Oliogoengine) and nucleofected (Lonza) into Shef4TetR5 hESCs (Zafarana et al., 2009). Neomycin-resistant cells were clonally expanded and assayed for doxycycline (20 ng/ml)-inducible knockdown. Data from one representative clone (Shef4TetR5 shELA) are shown in this paper. Shef4TetR5 shβ2M were derived as previously described (Zafarana et al., 2009). Unless otherwise stated, ELA knockdown was induced on Day −4 with 20 ng/ml doxycycline to generate shELA cells."}, "[5]": {"tested_on": "hECs", "test": "Growth and survival of hECs with recombinant ELA", "assay_type": "cell-based, human", "conditions": "multipotent hECs", "procedure": "(§3) Primary human fibroblasts, SW1353 chondrosarcoma (ATCC) and NTERA2 hECs (a gift from Barbara Knowles and Davor Solter) were grown in Dulbecco's modified Eagle's medium (DMEM) with 10% FBS (Hyclone), 2 mM GlutaMAX™ (Invitrogen) and 1 mM sodium pyruvate.\nas §1, §2"}, "[6]": {"tested_on": "human chondrosarcoma cell line", "test": "Growth and survival of chondrosarcoma cells with recombinant ELA", "assay_type": "cell-based", "conditions": "unipotent human chondrosarcoma cells", "procedure": "as §3, §1, §2"}, "[7]": {"tested_on": "primary human fibroblasts", "test": "Growth and survival of primary fibroblasts with recombinant ELA", "assay_type": "cell-based", "conditions": "primary fibroblast cells", "procedure": "as §3, §1, §2"}, "[8]": {"tested_on": "mesendodermal genes including GATA6, GATA4, FOXA2, EOMES and BRA", "test": "qPCR of mesendodermal markers in hESCs", "assay_type": "cell-based, human", "procedure": "(§4) After the indicated time periods, embryoid bodies were harvested and RNA extracted using RNeasy kit […]. qPCR reactions were carried out using either Universal FastStart SYBR Green Mastermix (Roche) or using the Universal Probe Library system (Roche) in tandem with Taqman Fast Mastermix (Invitrogen). Primer sequences can be found in Table E1."}, "[9]": {"tested_on": "SSEA3 and TRA-1-60", "test": "FACs of stem cell surface markers in ELA-treated hESCs", "assay_type": "cell-based, human", "conditions": "hESCs treated with recombinant ELA"}, "[10]": {"tested_on": "hESCs", "test": "Embryoid body differentiation of ELA-treated hESCs (qPCR)", "assay_type": "cell-based, human", "procedure": "Embryoid body differentiation was performed by plating 1 million cells per well of an Aggrewell 400 plate in Aggrewell Medium (Stem Cell Technologies) followed by harvesting and replating into low-adhesion plates (Corning).\nas §4"}, "[11]": {"tested_on": "hESCs", "test": "Directed endoderm differentiation of hESCs (SOX17+ cell count)", "assay_type": "cell-based, human", "conditions": "2.5 uM ELA peptide up to day 3", "procedure": "Shef4TetR5-shELA and Shef4TetR5-shβ2M cells were cultured in the presence (shELA and shβ2M respectively) or absence (Control) of 20 ng/ml doxycycline for 1 passage (4 days) and dissociated with Accutase. […] 24 hours later, the media was changed to Endo differentiation media 1 [RPMI 1640 (Gibco), 1X B-27 supplement (Invitrogen), 50 ng/ml of Activin A (R&D Systems), 25 ng/ml BMP4 (R&D Systems) and 50 ng/ml bFGF (Invitrogen)] for 3 days. On day 3, the media was changed to Endo differentiation media 2 (RPMI 1640, B27, 50 ng/ml Activin) for 2 more days of culture. Rescue experiments were performed by adding 2.5 uM of ELA peptide to Shef4TetR5-shELA concurrently with doxycycline up to day 3, when the ELA peptide is no longer necessary as judged by downregulation of endogenous ELA.\nOn day 5, cells were fixed with 4% paraformaldehyde and stained with α SOX17 (AF1924, R&D Systems) and DAPI. For each well, three different randomly selected fields were imaged and the number of nuclei staining positive of SOX17 and DAPI were counted using a custom macro in ImageJ. A minimum of two wells per condition was used for each experiment, and a minimum of two independent experiments were performed to generate the results."}, "[12]": {"tested_on": "myocardial ischaemia-reperfusion injury", "test": "Myocardial ischaemia-reperfusion injury (APELIN publications repeated with ELABELA)", "assay_type": "in vivo", "conditions": "administered during reperfusion", "excerpt": "Peptides 2009; 30:1144-52. • Simpkin J C, Yellon D M, Davidson S M, Lim S Y, Wynne A M, Smith C C. […] Basic Res Cardiol 2007; 102:518-28."}, "[13]": {"tested_on": "myocardial infarction", "test": "Coronary artery disease / myocardial infarction (APELIN publications repeated with ELABELA)", "assay_type": "in vivo, rat", "excerpt": "Peptides 2013; 46:76-82. • Li L, Zeng H, Chen J X. Apelin-13 increases myocardial progenitor cells and improves repair postmyocardial infarction. Am J Physiol Heart Circ Physiol 2012; 303:H605-18. • Pisarenko O I, Serebryakova L I, Pelogeykina Y A, et al. In vivo reduction of reperfusion injury to the heart with apelin-12 peptide in rats. Bull Exp Biol Med 2011; 152:79-82."}, "[14]": {"tested_on": "atherosclerosis", "test": "Atherosclerosis (APELIN publication repeated with ELABELA)", "conditions": "mouse, in vivo", "excerpt": "J Clin Invest 2008; 118:3343-54.\nThe experiments described in the above publication are repeated, with the replacement of APELIN with ELABELA."}, "[15]": {"tested_on": "heart failure", "test": "Heart failure (APELIN publications repeated with ELABELA)", "conditions": "in vivo", "excerpt": "Nature 2012 Aug. […] J Clin Invest. 2013 Nov. 1."}, "[16]": {"tested_on": "blood pressure", "test": "Hypertension (APELIN publications repeated with ELABELA)", "conditions": "in vivo", "excerpt": "Regulatory Peptides. 2001; 99(2-3):87-92. • Cheng X, Cheng X S, Pang C C. […] European Journal of Pharmacology. […] Journal of the American College of Cardiology. 2008; 52(11):908-913."}, "[17]": {"tested_on": "pulmonary arterial hypertension", "test": "Pulmonary arterial hypertension (APELIN publications repeated with ELABELA)", "conditions": "in vivo", "excerpt": "J Clin Invest 2011; 121:3735-46.\nAm J Physiol Heart Circ Physiol 2009; 296:H2007-14."}, "[18]": {"tested_on": "erectile function", "test": "Erectile dysfunction (APELIN publication repeated with ELABELA)", "conditions": "mouse, in vivo", "excerpt": "J Sex Med. 2013 Apr. 11. doi: 10.1111/jsm.12158."}, "[19]": {"tested_on": "HIV-1"}}, "note": "“Also recorded” adds a separate entry of the source."}
{"sequence": "QRPVNLTMRRKLRKHNCLQRRCMPLHSRVPFP (listed as Homo sapiens) [ELA]", "values": [{"measurement": "growth of hESCs by cell numbers", "setting": "[1]; FIG. 3C, relative to untreated hESCs", "value": "increased growth"}, {"measurement": "survival of hESCs", "setting": "[1]; FIG. 3D, relative to untreated hESCs", "value": "increased survival"}, {"measurement": "concentration range in which the recombinant peptide is bioactive", "setting": "[1]; hESCs, endogenous ELA in conditioned media is in the nM range", "value": "μM range"}, {"measurement": "uptake by hESCs", "setting": "[2]", "value": "rapidly up-taken; also recorded: rapidly taken up"}, {"measurement": "rapid cellular uptake", "setting": "[3]", "value": "not in other tested cell types"}, {"measurement": "rescue of the growth of shELA hESCs", "setting": "[4]", "value": "sufficient to rescue; also recorded: entirely rescued to normal levels"}, {"measurement": "pro-growth and survival properties", "setting": "[5]", "value": "not seen; also recorded: exerted activity only on hESCs cultures"}, {"measurement": "pro-growth and survival properties", "setting": "[6]", "value": "not seen; also recorded: exerted activity only on hESCs cultures"}, {"measurement": "pro-growth and survival properties", "setting": "[7]", "value": "not seen; also recorded: exerted activity only on hESCs cultures"}, {"measurement": "expression of mesendodermal markers", "setting": "[8]", "value": "significantly higher levels of mesendodermal markers; also recorded: consistently upregulated"}, {"measurement": "levels of cell surface markers SSEA3 and TRA-1-60", "setting": "[9]", "value": "do not lose; also recorded: unchanged levels"}, {"measurement": "lineage commitment during embryoid body differentiation", "setting": "[10]", "value": "can differentiate into all three germ layers; also recorded: not biased towards mesoderm or endoderm lineages"}, {"measurement": "rescue of endoderm differentiation of shELA hESCs", "setting": "[11]", "value": "entirely rescued; also recorded: sufficient to rescue"}, {"measurement": "infarct size", "setting": "[12]", "value": "significantly decrease infarct size"}, {"measurement": "myocardial infarction size and damage to cardiomyocytes", "setting": "[13]; injection", "value": "limit the myocardial infarction size and reduce damage to cardiomyocytes"}, {"measurement": "angiogenesis and cardiac repair postmyocardial infarction", "setting": "[13]; rat, in vivo", "value": "promote angiogenesis and ameliorate cardiac repair postmyocardial infarction"}, {"measurement": "Ang II-mediated increase in atherosclerosis burden", "setting": "[14]", "value": "mitigates the Ang II-mediated increase in atherosclerosis burden"}, {"measurement": "abdominal aortic aneurysm formation and rupture", "setting": "[14]", "value": "inhibit abdominal aortic aneurysm formation and rupture"}, {"measurement": "protection against atherosclerosis", "setting": "[14]", "value": "can protect against atherosclerosis"}, {"measurement": "protection against heart failure", "setting": "[15]", "value": "able to provide protection against heart failure"}, {"measurement": "blood pressure", "setting": "[16]", "value": "causes a reduction in blood pressure"}, {"measurement": "symptoms of pulmonary arterial hypertension", "setting": "[17]", "value": "alleviates symptoms of pulmonary arterial hypertension"}, {"measurement": "erectile function", "setting": "[18]", "value": "significant restoration of erectile function"}, {"measurement": "HIV-1 entry", "setting": "[19]", "value": "prevents or slows-down HIV-1 entry"}]}
